In assay [1] the test system is A375 cells. Description: Senescence assay in A375 cells (SPiDER βGAL labelling, confocal imaging after seven days with compound). Conditions: Homo sapiens, A-375, 168 h, seven days in the presence of compounds. Format: cell-based. How it is done: (§1) A375 (American Type Culture Collection; CRL-1619) cells were seeded into 96 well plates (1,200 cells/well; Perkin Elmer; 6005225) and incubated overnight at 37° C., 5% CO2. Compounds prepared in media (Dulbecco's modified Eagle medium+10% foetal bovine serum+1% penicillin/streptomycin) were added to the cells and incubated for four days at 37° C., 5% CO2. Media was then aspirated from the cells and freshly prepared compounds were added to the cells, which were then incubated for a further three days at 37° C., 5% CO2. After a total of seven days in the presence of compounds, media was removed, and the cells were labelled with Hoechst (1 in 1,000; Thermo Fisher; 62249), TOTO™-3 (1 in 10,000; Thermo Fisher; T3604) and SPiDER βGAL (1.0 μM; Sigma-Aldrich; 94433) prepared in Hanks' Balanced Salt Solution supplemented with 1.0 mM HEPES buffer for 20 minutes at 37° C. Cells were imaged by confocal microscopy using an ImageXpress (Molecular Devices) at ×10 magnification. Images were analysed using MetaXpress software (Molecular Devices).

The test system of assay [2] is A375 cells. Description: Proliferation assay in A375 cells (confocal imaging after seven days with compound). The following applies: Homo sapiens, A-375, 168 h, seven days in the presence of compounds. It counts as cell-based. How it is done: as §1
Assay [3] concerns the target T1, NIK (Homo sapiens, UniProt Q99558).
T1 construct: endogenous in cells; host or cells: A375 cells
Description: NIK degradation Western-blot experiments in A375 cells. It counts as cell-based. The following applies: 10 μM for 72 hrs, 5 μM MG132 during last 4 hours. How it is done: A375 cells were plated in 6-well dishes at 2,000 cells/cm^2. The day after, cells were treated for 72 hrs with compounds of the examples at 10 μM. Cells were treated during the last 4 hours of the treatment period with 5 μM MG132 to inhibit proteasomal degradation. For protein isolation, cells were washed twice with PBS and then lysed using RIPA Buffer (1×) containing protease and phosphatase inhibitors. Following sonication, the lysate was centrifuged at 20,000 g for 10 min at 4° C. and the supernatants were collected and assayed for protein concentration using the BCA kit (Pierce).
Total protein (20 μg) was separated by electrophoresis on 10% SDS-polyacrylamide gels and transferred to PVDF membranes (Millipore). Blocking was performed in Tris-buffer saline containing 3% BSA. Membranes were incubated with the appropriate primary antibodies overnight at 4° C. (NIK, CST #4994, 1/2000) and β-actin (Santa-Cruz, sc-47778, 1/5000). After washing three times, membranes were incubated with horseradish peroxidase-conjugated secondary antibodies for 1 h. Bound antibodies were detected using an enhanced chemiluminescence plus kit (GE Healthcare). NIK degradation was tested and confirmed for the compounds of Examples 3, 4, 5, 6, 10 and 11 (see the corresponding table below). For illustration, the Western blot analysis of NIK degradation in cells treated with the compound of Example 3 (at 10 μM for 72 h) is shown in FIG. 1.

For assay [4], the target named is T1, NIK. Conditions: pan kinase inhibitor, literature; cited from earlier work.

T1 sequence (Q99558 whole entry): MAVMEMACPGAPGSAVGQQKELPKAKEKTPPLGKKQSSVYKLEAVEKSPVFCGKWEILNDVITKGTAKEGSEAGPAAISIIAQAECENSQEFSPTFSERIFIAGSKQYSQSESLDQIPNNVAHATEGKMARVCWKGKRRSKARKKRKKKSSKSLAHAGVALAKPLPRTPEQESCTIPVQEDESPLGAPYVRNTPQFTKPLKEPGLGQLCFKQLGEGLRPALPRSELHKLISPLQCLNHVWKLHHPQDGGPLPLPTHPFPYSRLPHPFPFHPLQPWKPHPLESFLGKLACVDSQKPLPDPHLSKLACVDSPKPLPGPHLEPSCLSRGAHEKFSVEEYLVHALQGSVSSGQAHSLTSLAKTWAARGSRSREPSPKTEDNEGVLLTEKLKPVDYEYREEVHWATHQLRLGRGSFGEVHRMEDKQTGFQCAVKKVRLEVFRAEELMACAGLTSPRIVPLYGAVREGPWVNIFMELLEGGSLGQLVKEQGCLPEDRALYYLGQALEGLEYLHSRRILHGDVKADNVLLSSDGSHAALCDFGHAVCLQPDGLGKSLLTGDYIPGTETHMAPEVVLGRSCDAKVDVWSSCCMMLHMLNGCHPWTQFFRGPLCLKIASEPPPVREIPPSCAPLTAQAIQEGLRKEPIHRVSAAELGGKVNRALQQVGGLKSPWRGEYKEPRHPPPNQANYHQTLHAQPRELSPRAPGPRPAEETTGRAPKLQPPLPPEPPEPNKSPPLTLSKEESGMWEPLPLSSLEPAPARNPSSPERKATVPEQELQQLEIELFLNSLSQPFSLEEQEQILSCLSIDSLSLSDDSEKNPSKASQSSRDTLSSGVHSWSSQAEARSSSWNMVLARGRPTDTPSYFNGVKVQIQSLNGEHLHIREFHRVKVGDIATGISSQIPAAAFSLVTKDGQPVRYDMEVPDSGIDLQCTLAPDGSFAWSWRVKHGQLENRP

As a reminder, the EC50 is the concentration giving half of the maximal effect. One may read the IC50 as the concentration that inhibits the measured activity by half. For `COCCOc1ccc(Nc2ccnc3cc(C(F)F)ccc23)cc1`, the EC50 in the assay on A375 cells [1] stood at 2310 nM. The IC50 with A375 cells [2] was 1740 nM.

Regarding `COCCOc1ccc(Nc2ccnc3cc(C)ccc23)cc1`, the half-maximal effective concentration (EC50) in the assay with A375 cells [1] turned out to be 2460 nM. Further, the IC50 in the assay with A375 cells [2] was found to be 1900 nM.

For `COCCOc1ccc(Nc2ccnc3cc(OC)ccc23)c(OC)c1` [Example 3, 7-methoxy-N-(2-methoxy-4-(2-methoxyethoxy)phenyl)quinolin-4-amine], at NIK [3], the NIK degradation activity entry is “confirmed”.

As for `COCCOc1ccc(Nc2ccnc3cc(-c4cnn(C)c4)ccc23)c(OC)c1` [Example 4, N-(2-methoxy-4-(2-methoxyethoxy)phenyl)-7-(1-methyl-1H-pyrazol-4-yl)quinolin-4-amine], the NIK degradation activity entry at NIK [3] is recorded as “confirmed”.

As to `COCCOc1ccc(Nc2ccnc3cc(C4=CCN(C)CC4)ccc23)c(OC)c1` [Example 5, N-(2-methoxy-4-(2-methoxyethoxy)phenyl)-7-(1-methyl-1,2,3,6-tetrahydropyridin-4-yl)quinolin-4-amine], the NIK degradation activity entry at NIK [3] is “confirmed”.

For `COCCOc1ccc(Nc2ccnc3cc(N4CCN(C)CC4)ccc23)c(OC)c1` [Example 6, N-(2-methoxy-4-(2-methoxyethoxy)phenyl)-7-(4-methylpiperazin-1-yl)quinolin-4-amine], the NIK degradation activity entry at NIK [3] is listed as “confirmed”.

`COCCOc1ccc(Nc2ccnc3cc(C(F)F)ccc23)c(OC)c1` [Example 9, 7-(difluoromethyl)-N-(2-methoxy-4-(2-methoxyethoxy)phenyl)quinolin-4-amine]: in the assay with A375 cells [1], the half-maximal effective concentration (EC50) stood at 200 nM. In the assay with A375 cells [2], the half-inhibitory concentration (IC50) worked out at 205 nM.

For the molecule `COCCOc1ccc(Nc2ccnc3cc(C)ccc23)c(OC)c1` [Example 10, N-(2-methoxy-4-(2-methoxyethoxy)phenyl)-7-methylquinolin-4-amine], the EC50 in the assay on A375 cells [1] came to 670 nM. Moreover, the NIK degradation activity result at NIK [3] was “confirmed”. The concentration for half-maximal inhibition (IC50) with A375 cells [2] amounted to 195 nM.

With `COCCOc1ccc(Nc2ccnc3cc(C4CCN(C)CC4)ccc23)c(OC)c1` [Example 11, N-(2-methoxy-4-(2-methoxyethoxy)phenyl)-7-(1-methylpiperidin-4-yl)quinolin-4-amine], the NIK degradation activity entry on NIK [3] is listed as “confirmed”.

Regarding `COCCOc1ccc(Nc2ccnc3cc(Cl)ccc23)cc1` [Reference compound (*), 7-chloro-N-(4-(2-methoxyethoxy)phenyl)quinolin-4-amine], in the assay with A375 cells [1], the EC50 was 2490 nM. The IC50 in the assay on A375 cells [2] came out at 1690 nM.

As to `COc1ccc(Nc2ccnc3cc(Cl)ccc23)cc1O` [Reference compound (**), 7-chloro-N-(3-(hydroxy)-4-(methoxy)phenyl)quinolin-4-amine], the 50% effective concentration (EC50) in the assay with A375 cells [1] is above 10000 nM. Also, the half-maximal inhibitory concentration (IC50) in the assay with A375 cells [2] is above 10000 nM.

As to `CN[C@@H]1C[C@H]2O[C@@](C)([C@@H]1OC)n1c3ccccc3c3c4c(c5c6ccccc6n2c5c31)C(=O)NC4` [staurosporine], the “inhibition of the kinase activity (NIK)” value at NIK [4] is reported as “micromolar level”.

Values taken from patent publication US20250026722A1, “SUBSTITUTED QUINOLINES AS IMPROVED NF-KB-INDUCING KINASE (NIK) INHIBITORS” (YUKIN THERAPEUTICS, priority 2021, published 2025).
